Data set [1] in a line: Human PK model for AMG 510 fitted to digitized published clinical PK data. The class given is in vivo. As to conditions: AMG 510 (human).
Data set [2] has as its system NSCLC tumors. As to conditions: cited from earlier work.
Data set [3] has as its system NSCLC tumors. As to conditions: cited from earlier work. This is another data set of the same source.
Where [4] appears, read: patients with NSCLC, single agent.

Like-named read-outs stand apart in the source and are kept apart here.

As to `C=CC(=O)N1CCN(c2nc(=O)n(-c3c(C)ccnc3C(C)C)c3nc(-c4c(O)cccc4F)c(F)cc23)[C@@H](C)C1` [AMG 510, Sotorasib], the ke in data set [1] was found to be 2.98 day⁻¹. In data set [1] (assume 70 kg human), this compound came in with a V1 of 110 L and a Vp of 4.40 L. This compound also displayed a ka in data set [1] (single dose 960 mg) of 58.1 day⁻¹. Also, the ORR reported in data set [2] (AMG 510 at 960 mg, patients with NSCLC) is 50%. In addition, the “overall response rate (ORR)” value in data set [2] (setting [4]) is given as ~ 50%. Besides, the dose-limiting toxicities entry in data set [2] (patients, phase I) is listed as “no dose‐limiting toxicities”. Moreover, in data set [2] (six weeks AMG 510), the “Fz (data), frequency in tumor size bin 0–0.3” value was 0.091; the “Fz (data), frequency in tumor size bin 0.3–0.5” value is recorded as 0.136; the “Fz (data), frequency in tumor size bin 0.5–0.7” value was 0.272; the “Fz (data), frequency in tumor size bin 0.7–1” value is reported as 0.272. In addition, in data set [2] (six weeks AMG 510), the “Fz (data), frequency in tumor size bin 1–1.2” value is 0.227; the “N (data), number of patients in tumor size bin 0–0.3” value was 2; the “N (data), number of patients in tumor size bin 0.3–0.5” value was 3; the “N (data), number of patients in tumor size bin 0.5–0.7” value is given as 6. Also, in data set [2] (six weeks AMG 510), the “N (data), number of patients in tumor size bin 0.7–1” value is 6 and the “N (data), number of patients in tumor size bin 1–1.2” value is 5.

Regarding `C=C(F)C(=O)N1CCN(c2nc(OC[C@@H]3CCCN3C)nc3c2CCN(c2cccc4cccc(Cl)c24)C3)C[C@@H]1CC#N` [MRTX849, Adagrasib], in data set [3] (setting [4]), the “overall response rate (ORR)” value is listed as ~ 50%. Further, the dose-limiting toxicities result in data set [3] (patients, phase I) is listed as “no dose‐limiting toxicities”.

(Values after paper PMC8376128 (CPT: Pharmacometrics & Systems Pharmacology, 2021).)
